Source: paper PMC12519282, “Reduction of Negative Charge in Mercaptoacetyl-Based Chelators Influences the Biodistribution of Prostate-Specific Membrane Antigen-Targeting Pseudopeptides Labeled with Technetium-99m” (ACS Pharmacology & Translational Science, 2025)
Read-outs that look alike come from different tables or passages of the source. Marks after values point to notes of the source that are not given here.

Assays:
[1] = format: in vitro ADME, murine; details: 1 h
Experimental: (§1) To evaluate the label’s stability, 10 μL (0.25 μg) of radiolabeled conjugates was incubated with 300× molar excess of cysteine or with PBS for 1 h at room temperature. The test was run in triplicate. The release of free technetium-99m was controlled by using iTLC and radio-HPLC analysis. The stability in serum was analyzed by mixing the radioconjugates (0.25 μg in 10 μL) with murine serum or PBS (40 μL) as a control. The samples were incubated for 1 h at 37 °C and analyzed by iTLC. The experiment was performed in triplicate. The octanol–water distribution coefficient (Log D) was determined experimentally by the addition of 100 pmol of the radiolabeled tracer to an Eppendorf tube containing PBS (500 μL) and n-octanol (500 μL), pH ∼ 7.4. The solution was vortexed and centrifuged, and aliquots (50 μL) from each phase were collected and measured using a gamma counter. The experiment was performed in triplicate.

[2] = molecular target: T1, PSMA (Homo sapiens, UniProt Q04609); test: binding kinetics in real time on living PC3-pip cells (LigandTracer Yellow)
T1 construct: expressed in transfected cells; host or cells: PC3-pip (PSMA-transfected PC-3 prostate carcinoma cells), from Prof; Martin G. Pomper, Johns Hopkins University
T1 sequence (Q04609 whole entry): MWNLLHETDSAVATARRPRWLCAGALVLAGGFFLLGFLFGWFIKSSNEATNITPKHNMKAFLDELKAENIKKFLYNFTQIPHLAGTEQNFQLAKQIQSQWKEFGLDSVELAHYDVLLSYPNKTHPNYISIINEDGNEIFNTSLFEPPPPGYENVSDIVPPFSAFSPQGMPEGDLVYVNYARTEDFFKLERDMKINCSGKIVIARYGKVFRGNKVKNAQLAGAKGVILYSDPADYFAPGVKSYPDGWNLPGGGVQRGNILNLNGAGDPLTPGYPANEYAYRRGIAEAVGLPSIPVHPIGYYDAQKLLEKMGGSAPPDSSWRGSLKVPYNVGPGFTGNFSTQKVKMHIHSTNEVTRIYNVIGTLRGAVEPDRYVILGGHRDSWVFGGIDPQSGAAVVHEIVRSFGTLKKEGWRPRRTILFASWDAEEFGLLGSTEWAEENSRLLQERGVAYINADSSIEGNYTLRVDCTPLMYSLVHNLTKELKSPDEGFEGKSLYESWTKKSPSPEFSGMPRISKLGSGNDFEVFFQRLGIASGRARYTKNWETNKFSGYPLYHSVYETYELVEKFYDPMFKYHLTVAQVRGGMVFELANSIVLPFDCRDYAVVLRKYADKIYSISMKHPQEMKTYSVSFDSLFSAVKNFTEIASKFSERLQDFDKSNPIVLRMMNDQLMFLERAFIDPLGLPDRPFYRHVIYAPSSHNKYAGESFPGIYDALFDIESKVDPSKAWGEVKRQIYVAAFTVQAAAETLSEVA
Experimental: The binding kinetics of technetium-99m-labeled BQ0413, BQ0500, and BQ0501 were determined in PC3-pip cells in real-time using LigandTracer Yellow (Ridgeview Instruments AB, Uppsala, Sweden). The activity binding was recorded with 5 nM radiolabeled tracers for 150 min. After the binding kinetics were measured, the medium containing the labeled tracer was replaced with fresh medium, and the dissociation was monitored over 7 h. The association rate (k a) and the dissociation rate (k d) were computed using a 1:2 kinetic binding model in TraceDrawer software (Ridgeview Instruments AB, Uppsala, Sweden), and the equilibrium dissociation constant K D was calculated.

[3] = physchem; format: physicochemical; details: pH 7.4
Experimental: as §1

[4] = test system: PC3-pip cells; test: in vitro binding specificity test; format: cell-based; details: 1 h, 37 °C
Experimental: For the in vitro binding specificity test, approximately 8 × 10^5 PC3-pip cells per well were seeded 24 h before the experiment. […] Technetium-99m-labeled tracers were added to each well to reach a concentration of 2 nM. After 1 h of incubation at 37 °C, cells were washed with PBS solution, detached, and collected. Cell-associated activity was measured using a gamma counter and presented as the percentage of added activity.

[5] = test system: PC3-pip cells; test: cellular processing (membrane-bound / internalized activity); format: cell-based; details: 2 nM, continuous incubation, after 8 h
Experimental: To evaluate cellular processing of technetium-99m-labeled BQ0500 and BQ0501, PC3-pip cells were incubated with the radiolabeled tracer (2 nM), and at 1, 2, 4, and 8 h of continuous incubation, the membrane-bound and internalized fractions were collected as previously described using 4 M urea solution in 0.2 M glycine buffer (pH 2) to collect membrane-bound fraction and 1 N solution of NaOH to collect the internalized fraction. The activity in the samples was measured, and the percentage of membrane-bound and internalized activity was calculated. The experiments were performed in triplicate.

[6] = test system: PC3-pip xenografts; test: biodistribution and tumor targeting in PC3-pip tumor-bearing mice; format: in vivo
Text: The injected masses for the in vivo experiments were chosen based on the findings for [^99mTc]-Tc-BQ0413: to study the general biodistribution of radiolabeled tracers in normal mice (NMRI), 40 pmol of tracer was used to avoid blocking of PSMA-mediated uptake in kidneys and salivary glands, to study tumor targeting, 5 nmol of tracer was used to decrease uptake in PSMA-expressing organs.
PSMA-expressing PCa xenografts were implanted in BALB/c nu/nu mice by subcutaneous injection of the PC3-pip cell suspension in PBS (10^7 cells/animal in 100 μL). The average animal weight in the experiment was 18 ± 2 g. The average tumor weight was 0.4 ± 0.2 g. For in vivo specificity control, 10^7 cells/animal PSMA-negative PC-3 cells were implanted. The average animal weight was 18 ± 1 g. The average tumor weight was 0.1 ± 0.1 g. Four mice per data point were used in the in vivo experiments.
For tumor-bearing mice, each mouse was intravenously injected with 5 nmol of [^99mTc]-Tc-BQ0413, [^99mTc]-Tc-BQ0500, and [^99mTc]-Tc-BQ0501 (60 kBq; the mass of the injected compound was adjusted with an unlabeled tracer). The mice were euthanized after lethal intraperitoneal injection of ketamine/xylazine, followed by exsanguination 1 and 3 h pi, similarly to the procedure described above.

[7] = PC3-pip tumor-bearing mice, 5 nmol/mouse iv, 1 h pi
[8] = PC3-pip tumor-bearing mice, 5 nmol/mouse iv, 3 h pi
[9] = PC3-pip tumor-bearing mice, 5 nmol/mouse iv, 3 h pi, listed as [99mTc]Tc-BQ0501

CC(=O)NC(CCCCNC(=O)CNC(=O)C(CO)NC(=O)C(CO)NC(=O)C(CO)NC(=O)CS)C(=O)NCCCCCCCC(=O)NC(Cc1ccc(O)cc1)C(=O)NC(Cc1ccc2ccccc2c1)C(=O)NCCCCC(NC(=O)NC(CCC(=O)O)C(=O)O)C(=O)O (centres unmarked) [[^99mTc]Tc-BQ0501, metal not drawn]
intact tracer in PBS ([1]; PBS control, 37 °C, n = 3): 97.4 ± 0.9% | intact tracer in murine serum ([1]; mouse, 5 µg/mL): 98.7 ± 0.6% | B max1 (binding maximum) ([2]; 5 nM tracer, 1:2 model (1:1 for BQ0413)): 492 CPS | Kd ([2]; 5 nM tracer, 1:2 model (1:1 for BQ0413), read-out: K D1): 0.474 nM | kon ([2]; 5 nM tracer, 1:2 model (1:1 for BQ0413), read-out: k a1 (association rate)): 27000 M⁻¹ s⁻¹ | koff ([2]; 5 nM tracer, 1:2 model (1:1 for BQ0413), read-out: k d1 (dissociation rate)): 1.2e-05 s⁻¹ | B max2 (binding maximum) ([2]; 5 nM tracer, 1:2 model, second interaction): 272 CPS | Kd ([2]; 5 nM tracer, 1:2 model, second interaction, read-out: K D2): 3.6 nM | kon ([2]; 5 nM tracer, 1:2 model, second interaction, read-out: k a2 (association rate)): 49000 M⁻¹ s⁻¹ | koff ([2]; 5 nM tracer, 1:2 model, second interaction, read-out: k d2 (dissociation rate)): 0.00016 s⁻¹ | affinity compromised in comparison with [99mTc]Tc-BQ0413 ([2]; PC3-pip cells): 3–5 fold | Kd ([2]; as rounded in comparison table, read-out: K D1): 0.5 nM | Kd ([2]; as rounded in comparison table, read-out: K D2): 3.6 nM | logD [3]: -2.4 ± 0.1 | activity uptake by PC3-pip cells ([4]; 2 nM tracer): 62 ± 7 % of added activity | activity uptake by PC3-pip cells after presaturation with PSMA-11 ([4]; 250-fold excess of nonlabeled PSMA-11, 2 nM tracer): significantly (p < 0.0001) decreased | maximum of internalized activity [5]: 42–43 % of cell-associated activity | activity in carcass [6, 7]: 8 ± 2 ^b %IA/sample | activity in intestines with content [6, 7]: 9 ± 1 ^b ^e %IA/sample | activity uptake in blood [6, 7]: 1.6 ± 0.5 ^b %IA/g | activity uptake in bone [6, 7]: 0.4 ± 0.1 ^b ^e %IA/g | activity uptake in kidney [6, 7]: 21 ± 6 ^b %IA/g | activity uptake in liver [6, 7]: 1.8 ± 0.7 ^b %IA/g | activity uptake in lung [6, 7]: 1.6 ± 0.4 ^b %IA/g | activity uptake in muscle [6, 7]: 0.3 ± 0.1 ^b %IA/g | activity uptake in pancreas [6, 7]: 0.45 ± 0.05 ^b %IA/g | activity uptake in salivary gland [6, 7]: 0.6 ± 0.2 ^b ^, ^e %IA/g | activity uptake in small intestines [6, 7]: 1.4 ± 0.6 ^b ^e %IA/g | activity uptake in spleen [6, 7]: 2.4 ± 0.5 ^b %IA/g | activity uptake in stomach [6, 7]: 0.6 ± 0.2 ^b ^e %IA/g | activity uptake in tumor [6, 7]: 27 ± 7 %IA/g | tumor-to-blood ratio [6, 7]: 19 ± 8 ^b | tumor-to-bone ratio [6, 7]: 62 ± 18 ^b ^, ^e | tumor-to-kidney ratio [6, 7]: 1.3 ± 0.5 ^b | tumor-to-liver ratio [6, 7]: 17 ± 7 ^b | tumor-to-lung ratio [6, 7]: 17 ± 6 ^b | tumor-to-muscle ratio [6, 7]: 86 ± 34 ^b | tumor-to-pancreas ratio [6, 7]: 62 ± 24 ^b | tumor-to-salivary gland ratio [6, 7]: 47 ± 19 ^b ^, ^e | tumor-to-small intestines ratio [6, 7]: 22 ± 11 ^b | tumor-to-spleen ratio [6, 7]: 12 ± 5 ^b | tumor-to-stomach ratio [6, 7]: 46 ± 18 ^b ^, ^e | activity in carcass [6, 8]: 3 ± 1 %IA/sample | activity in intestines with content [6, 8]: 11.0 ± 0.5 ^e %IA/sample | activity uptake in blood [6, 8]: 0.14 ± 0.07 %IA/g | activity uptake in bone [6, 8]: 0.07 ± 0.03 ^e %IA/g | activity uptake in kidney [6, 8]: 4 ± 2 ^e %IA/g | activity uptake in liver [6, 8]: 0.18 ± 0.06 %IA/g | activity uptake in lung [6, 8]: 0.21 ± 0.07 %IA/g | activity uptake in muscle [6, 8]: 0.08 ± 0.04 %IA/g | activity uptake in pancreas [6, 8]: 0.1 ± 0.1 %IA/g | activity uptake in salivary gland [6, 8]: 0.14 ± 0.06 ^e %IA/g | activity uptake in small intestines [6, 8]: 0.17 ± 0.03 %IA/g | activity uptake in spleen [6, 8]: 0.3 ± 0.2 %IA/g | activity uptake in stomach [6, 8]: 0.14 ± 0.06 %IA/g | tumor-to-bone ratio [6, 8]: 515 ± 113 ^e | tumor-to-kidney ratio [6, 8]: 10 ± 2 ^e | tumor-to-liver ratio [6, 8]: 222 ± 89 ^e | tumor-to-lung ratio [6, 8]: 178 ± 61 ^e | tumor-to-muscle ratio [6, 8]: 504 ± 195 | tumor-to-pancreas ratio [6, 8]: 463 ± 135 ^e | tumor-to-salivary gland ratio [6, 8]: 302 ± 146 ^e | tumor-to-small intestines ratio [6, 8]: 209 ± 46 | tumor-to-spleen ratio [6, 8]: 121 ± 47 ^e | tumor-to-stomach ratio [6, 8]: 287 ± 102 ^e | activity in carcass [6, 9]: 3±1 %IA/sample | activity in intestines with content [6, 9]: 11.0±0.5 %IA/sample | activity uptake in blood [6, 9]: 0.14±0.07 %IA/g | activity uptake in bone [6, 9]: 0.07±0.03 %IA/g | activity uptake in kidney [6, 9]: 4±2 %IA/g | activity uptake in liver [6, 9]: 0.18±0.06 %IA/g | activity uptake in lung [6, 9]: 0.21±0.07 %IA/g | activity uptake in muscle [6, 9]: 0.08±0.04 %IA/g | activity uptake in pancreas [6, 9]: 0.1±0.1 %IA/g | activity uptake in salivary gland [6, 9]: 0.14±0.06 %IA/g | activity uptake in small intestines [6, 9]: 0.17±0.03 %IA/g | activity uptake in spleen [6, 9]: 0.3±0.2 %IA/g | activity uptake in stomach [6, 9]: 0.14±0.06 %IA/g | activity uptake in tumor [6, 9]: 35±4 %IA/g | excretion pathway ([6]; PC3-pip xenografts): predominantly renal
